Reference: patent publication US4177269A, “Novel 17-esters of 17α-hydroxy gestogens, compositions containing such compounds, processes for their preparation and methods of treatment therewith” (Aktiebolaget Leo, priority 1976, dated 1979)

Key:
[1] = system: Lymphatic leukemia L 1210; assay: Lymphatic leukemia L 1210 survival in mice; assay type: in vivo, CDF1 (C3H×DBA/2)F1 mice; conditions: one i.p. injection; for Weight change Δv: T - C up to the 5th day
Description: The experimental design and the interpretation of the results are in accordance with the standards set by the CCNSC (Cancer Chemotherpy Reports, January 1959 and December 1962).
Lymphatic leukemia L 1210.
Experimental animals: CDF1 (C3H×DBA/2)F1 mice
Tumour implant: 10^5 tumour cells i.p.
Therapy: One injection i.p. on the day following implanta-
Evaluation: (a) The survival time of the test animals (t)
expressed as the percentage of that of control animals (c).
(b) Weight change in the test animals (T) compared with that
of the control animals (C) up to the 5th day.
(c) The mortality rate must not exceed 35% in the test
animals on the 5th day of therapy.

[2] = Walker carcinosarcoma 256 tumour growth inhibition in rats; assay type: in vivo, Sprague-Dawley rats; conditions: rat, in vivo, po, daily p.o. for 5 days
In short: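 Sprague-Dawley rats implanted with Walker 256 tumour pieces 2-4 mm across. Compound dosed p.o. daily for 5 days from the day after implantation, and animals killed on day 9. Tumour weights compared with controls. ED50 is the dose giving 50% tumour-size reduction, and LD50 is the dose giving 50% lethality.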

[3] = Hepatome AH 130 tumour growth inhibition in rats; assay type: in vivo, Sprague-Dawley rats; design: ED50: unit not given here; conditions: rat, in vivo, ip, one i.p. injection
In short: (§1)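 Sprague-Dawley rats implanted i.p. with 5 × 10^6 tumour cells, given a single i.p. injection the day after implantation, and killed on day 8. Tumour weights compared with controls; ED50 is the dose halving tumour size, LD50 the dose lethal to 50% of animals.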

Hepatome AH 130 = Hepatome AH 130 tumour growth inhibition in rats; assay type: in vivo, Sprague-Dawley rats; design: ED50: unit not given here; conditions: one i.p. injection, dose causing 50 percent reduction of tumour size, killed 8th day
In short: as §1

[4] = system: Ehrlich ascites tumour, ELD hyperdiploid; assay: Ehrlich ascites tumour, ELD hyperdiploid (46 chromosomes), growth inhibition in mice; assay type: in vivo, SPF NMRI mice; conditions: 100 mg/kg, one i.p. injection
In short: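 SPF NMRI mice implanted i.p. with 2 × 10^6 ELD hyperdiploid Ehrlich ascites cells, given one i.p. injection the day after implantation. Animals killed on day 8; tumour weights compared with controls.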

CC(=O)[C@@]1(OC(=O)COC(=O)c2ccc(C)c(N(CCCl)CCCl)c2)CC[C@H]2[C@@H]3CCC4=CC(=O)CC[C@]4(C)[C@H]3CC[C@@]21C [Compound 3:7, 17α-/3-(N,N-bis(2-chloroethyl)amino)-4-methylbenzoyloxyacetoxy/pregn-4-ene-3,20-dione]
Effect (survival time of test animals as percentage of that of control animals) ([1]; 250 mg/kg): 130%
Mortality ([1]; 250 mg/kg): 0/20
Weight change Δv ([1]; 250 mg/kg): -4.0 g
Effect (survival time of test animals as percentage of that of control animals) ([1]; 500 mg/kg): 172%
Mortality ([1]; 500 mg/kg): 0/19
Weight change Δv ([1]; 500 mg/kg): -5.2 g
LD50 ([2]; dose causing 50 percent lethality): > 250 mg/kg
selectivity ratio ([2]; read-out: T.I. (LD50/ED50)): > 15
LD50 ([3]; dose causing 50 percent lethality, column head not given): > 250 mg/kg
selectivity ratio ([3]; read-out: T.I. (LD50/ED50)): > 125
ED50 (Hepatome AH 130): 2
Mortality [4]: 0/12
Tumour weight Treated/Control ([4]; 8th day): 2%
